# Experiments:
# [1] = target: hGYS1 enzyme (recombinant hGYS1/GN1 protein) (Homo sapiens (Human), UniProt P13807); assay: GYS1 coupled enzyme assay (PK/LDH); assay type: biochemical; settings: hGYS1/GN1 50 nM, UDP-Glucose 0.8 mM, G6P 1 mM; geometric mean of at least 2 runs
# [2] = system: hGYS1 enzyme / glycogen synthesis in HeLa cells; assay: GYS1 cell based assay (glycogen synthesis, Glucose-glo); set-up: species or system human; settings: 24 h incubation, 20 mM glucose, geometric mean of at least 2 runs
# Summary of the method: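 HeLa cells starved 24 h in medium containing only 1× Glutamax were plated onto compound in medium with 20 mM glucose (1% DMSO final) for 24 h, 37 °C, 5% CO2. Acid lysates were Tris-quenched, glucoamylase-digested (pH 5.3, 1 h, 37 °C) and read by Glucose-glo luminescence. IC50 came from Hill fits, as geometric mean of ≥2 runs.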
# [3] = target: hGYS2 enzyme (recombinant hGYS2/GN1 protein) (Homo sapiens (Human), UniProt P54840); assay: GYS2 coupled enzyme assay (PK/LDH); assay type: biochemical; settings: geometric mean of at least 2 assay runs on separate days, read-out: Avg_IC50
# Summary of the method: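 Read-out: NADH loss at 340 nm, read each minute for 10 min, slope normalized to controls, duplicate % inhibition fit to Hill (0–100). Enzyme: 200 nM hGYS2/GN1; substrate 2 mM UDP-glucose plus 0.2% glycogen and 2 mM G6P; pH 7.5 Tris, 2.5% DMSO.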
# hGYS2 enzyme (recombinant hGYS2/GN1 protein), sequence (P54840 whole entry): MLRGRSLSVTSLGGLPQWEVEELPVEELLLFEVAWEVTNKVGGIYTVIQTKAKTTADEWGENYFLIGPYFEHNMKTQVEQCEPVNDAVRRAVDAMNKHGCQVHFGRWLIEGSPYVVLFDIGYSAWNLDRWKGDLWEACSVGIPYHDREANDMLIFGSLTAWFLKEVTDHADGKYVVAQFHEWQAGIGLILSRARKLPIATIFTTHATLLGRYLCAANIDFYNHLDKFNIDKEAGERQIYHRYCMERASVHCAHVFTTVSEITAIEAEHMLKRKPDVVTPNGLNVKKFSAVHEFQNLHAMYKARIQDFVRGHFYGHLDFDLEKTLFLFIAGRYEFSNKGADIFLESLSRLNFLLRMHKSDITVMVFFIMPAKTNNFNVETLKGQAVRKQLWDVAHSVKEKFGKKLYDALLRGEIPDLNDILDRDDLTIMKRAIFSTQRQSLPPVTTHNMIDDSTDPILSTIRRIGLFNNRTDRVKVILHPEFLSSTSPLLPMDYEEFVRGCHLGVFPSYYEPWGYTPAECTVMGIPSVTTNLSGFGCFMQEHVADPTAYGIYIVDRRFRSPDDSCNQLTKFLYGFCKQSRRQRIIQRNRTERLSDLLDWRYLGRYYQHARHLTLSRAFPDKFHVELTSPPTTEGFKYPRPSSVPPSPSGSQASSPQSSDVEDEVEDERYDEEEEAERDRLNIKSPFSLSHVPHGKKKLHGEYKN
# hGYS2 enzyme (recombinant hGYS2/GN1 protein), sequence (P46976 whole entry partner): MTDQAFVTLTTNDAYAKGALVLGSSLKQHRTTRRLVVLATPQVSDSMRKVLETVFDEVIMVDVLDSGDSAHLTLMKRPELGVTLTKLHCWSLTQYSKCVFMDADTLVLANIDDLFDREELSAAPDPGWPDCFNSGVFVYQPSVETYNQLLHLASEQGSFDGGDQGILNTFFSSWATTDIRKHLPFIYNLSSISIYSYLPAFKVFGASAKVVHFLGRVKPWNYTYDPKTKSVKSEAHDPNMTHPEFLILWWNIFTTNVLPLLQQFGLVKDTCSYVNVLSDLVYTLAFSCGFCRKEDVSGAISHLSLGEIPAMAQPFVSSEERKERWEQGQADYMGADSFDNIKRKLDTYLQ
# hGYS1 enzyme (recombinant hGYS1/GN1 protein), sequence (P13807 whole entry): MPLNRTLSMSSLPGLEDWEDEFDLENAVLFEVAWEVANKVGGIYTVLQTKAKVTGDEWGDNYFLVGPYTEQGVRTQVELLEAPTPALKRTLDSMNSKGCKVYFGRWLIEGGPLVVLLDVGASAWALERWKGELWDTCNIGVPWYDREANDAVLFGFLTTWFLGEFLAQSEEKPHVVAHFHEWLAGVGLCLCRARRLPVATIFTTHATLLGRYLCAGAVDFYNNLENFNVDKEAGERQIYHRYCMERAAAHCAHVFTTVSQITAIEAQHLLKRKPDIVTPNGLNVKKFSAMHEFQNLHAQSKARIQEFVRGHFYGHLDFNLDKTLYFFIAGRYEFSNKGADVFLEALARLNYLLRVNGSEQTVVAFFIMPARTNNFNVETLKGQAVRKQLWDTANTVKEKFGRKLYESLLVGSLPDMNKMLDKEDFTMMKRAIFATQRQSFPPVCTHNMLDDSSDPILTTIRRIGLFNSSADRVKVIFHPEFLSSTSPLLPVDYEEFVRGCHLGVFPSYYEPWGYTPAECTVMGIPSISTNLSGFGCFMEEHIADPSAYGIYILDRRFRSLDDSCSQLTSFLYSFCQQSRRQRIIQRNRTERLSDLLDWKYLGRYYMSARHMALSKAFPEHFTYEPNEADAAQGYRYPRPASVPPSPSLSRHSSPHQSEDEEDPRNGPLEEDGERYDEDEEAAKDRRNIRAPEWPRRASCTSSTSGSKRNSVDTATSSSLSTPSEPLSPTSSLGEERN
# hGYS1 enzyme (recombinant hGYS1/GN1 protein), sequence (P46976 whole entry partner): as the sequence (P46976 whole entry partner) above
IC50 [1] [nM],IC50 [2] [nM],IC50 [3] [nM],"IC50 ([2]; Homo sapiens, HeLa, 24 h) [nM]",SMILES
13,660,> 100000,,"CC(C)c1ccc(C(NC(=O)[C@@H]2C[C@@H](F)CN2C(=O)Cc2cnn[nH]2)c2ccc3cn[nH]c3c2)nc1F (single isomer, unassigned) [Compound 632, (2S,4R)-4-fluoro-N-[(S) or (R)-[6-fluoro-5-(propan-2-yl)pyridin-2-yl](1H-indazol-6-yl)methyl]-1-[2-(1H-1,2,3-triazol-5-yl)acetyl]pyrrolidine-2-carboxamide]"
77,,> 100000,1570,"COc1cccc(C(NC(=O)[C@@H]2C[C@@H](F)CN2C(=O)Cc2cnn[nH]2)c2ccc(C(C)C)c(F)n2)c1 (single isomer, unassigned) [Compound 651, (2S,4R)-4-fluoro-N-[(S) or (R)-[6-fluoro-5-(propan-2-yl)pyridin-2-yl](3-methoxyphenyl)methyl]-1-[2-(1H-1,2,3-triazol-5-yl)acetyl]pyrrolidine-2-carboxamide]"
262,,> 100000,3750,"CC(C)c1ccc(C(CC2CC2)NC(=O)[C@@H]2C[C@@H](F)CN2C(=O)Cc2cnn[nH]2)cc1F (single isomer, unassigned) [Compound 653, (2S,4R)-N-[(1S) or (1R)-2-cyclopropyl-1-[3-fluoro-4-(propan-2-yl)phenyl]ethyl]-4-fluoro-1-[2-(1H-1,2,3-triazol-5-yl)acetyl]pyrrolidine-2-carboxamide]"
23,,> 100000,290,"CC(C)c1c(F)cc(C(NC(=O)[C@@H]2C[C@@H](F)CN2C(=O)Cc2cnn[nH]2)c2ccccc2)cc1F (single isomer, unassigned) [Compound 667, (2S,4R)-N-[(S) or (R)-[3,5-difluoro-4-(propan-2-yl)phenyl](phenyl)methyl]-4-fluoro-1-[2-(1H-1,2,3-triazol-5-yl)acetyl]pyrrolidine-2-carboxamide]"
25,,> 100000,320,"CC(C)c1c(F)cc(C(NC(=O)[C@@H]2C[C@@H](F)CN2C(=O)Cn2ccnn2)c2ccccc2)cc1F (single isomer, unassigned) [Compound 668, (2S,4R)-N-[(S) or (R)-[3,5-difluoro-4-(propan-2-yl)phenyl](phenyl)methyl]-4-fluoro-1-[2-(1H-1,2,3-triazol-1-yl)acetyl]pyrrolidine-2-carboxamide]"
96,,> 100000,710,"O=C(NC(c1ccccc1)c1ccc(C2CCC2)c(F)c1)[C@@H]1C[C@@H](F)CN1C(=O)Cc1cnn[nH]1 (single isomer, unassigned) [Compound 674, (2S,4R)-N-[(S) or (R)-(4-cyclobutyl-3-fluorophenyl) (phenyl)methyl]-4-fluoro-1-[2-(1H-1,2,3-triazol-5-yl)acetyl]pyrrolidine-2-carboxamide]"
101,,> 100000,1130,"O=C(NC(c1ccccc1)c1ccc(C2CCC2)c(F)c1)[C@@H]1C[C@@H](F)CN1C(=O)Cn1cnnn1 (single isomer, unassigned) [Compound 675, (2S,4R)-N-[(S) or (R)-(4-cyclobutyl-3-fluorophenyl) (phenyl)methyl]-4-fluoro-1-[2-(1H-1,2,3,4-tetrazol-1-yl)acetyl]pyrrolidine-2-carboxamide]"
554,14000,> 100000,,"CCC(C)c1ccc(C(NC(=O)[C@@H]2C[C@@H](F)CN2C(=O)Cc2cnn[nH]2)c2ccccc2)cc1F (single isomer, unassigned) [Compound 676, (2S,4R)-N-[(R) or (S)-{4-[(2R) or (2S)-butan-2-yl]-3-fluorophenyl}(phenyl)methyl]-4-fluoro-1-[2-(1H-1,2,3-triazol-5-yl)acetyl]pyrrolidine-2-carboxamide]"
51,990,> 100000,,"CCC(C)c1ccc(C(NC(=O)[C@@H]2C[C@@H](F)CN2C(=O)Cc2cnn[nH]2)c2ccccc2)cc1F (single isomer, unassigned) [Compound 677, (2S,4R)-N-[(S) or (R)-{4-[(2R) or (2S)-butan-2-yl]-3-fluorophenyl} (phenyl)methyl]-4-fluoro-1-[2-(1H-1,2,3-triazol-5-yl)acetyl]pyrrolidine-2-carboxamide]"
15,270,93000,,"Cc1cc(C(NC(=O)[C@@H]2C[C@@H](F)CN2C(=O)Cc2cnn[nH]2)c2ccccc2)cc(F)c1C(C)C (single isomer, unassigned) [Compound 680, (2S,4R)-4-fluoro-N-[(S) or (R)-[3-fluoro-5-methyl-4-(propan-2-yl)phenyl](phenyl)methyl]-1-[2-(1H-1,2,3-triazol-5-yl)acetyl]pyrrolidine-2-carboxamide]"
116,,> 100000,2090,"Cc1nnn(CC(=O)N2C[C@H](F)C[C@H]2C(=O)NC(c2ccccc2)c2cc(C)c(C3CC3)c(F)c2)n1 (single isomer, unassigned) [Compound 682, (2S,4R)-N-[(S) or (R)-(4-cyclopropyl-3-fluoro-5-methylphenyl) (phenyl)methyl]-4-fluoro-1-[2-(5-methyl-2H-1,2,3,4-tetrazol-2-yl)acetyl]pyrrolidine-2-carboxamide]"
47,,> 100000,900,"CC(=O)N1C[C@H](F)C[C@H]1C(=O)NC(c1cccc(-c2ccn[nH]2)c1)c1ccc(C(C)C)c(F)n1 (single isomer, unassigned) [Compound 690, (2S,4R)-1-acetyl-4-fluoro-N-[(S) or (R)-[6-fluoro-5-(propan-2-yl)pyridin-2-yl][3-(1H-pyrazol-5-yl)phenyl]methyl] pyrrolidine-2-carboxamide]"
38,,> 100000,350,"CC(C)c1ccc([C@@H](NC(=O)[C@@H]2C[C@@H](F)CN2C(=O)C(C)n2cnnn2)c2ccccc2)cc1F (single isomer, unassigned) [Compound 766, (2S,4R)-4-fluoro-N-[(S)-[3-fluoro-4-(propan-2-yl)phenyl](phenyl)methyl]-1-[(2R) or (2S)-2-(1H-1,2,3,4-tetrazol-1-yl)propanoyl]pyrrolidine-2-carboxamide]"
121,1230,> 100000,,"CC(C)c1ccc([C@@H](NC(=O)[C@@H]2C[C@@H](F)CN2C(=O)C(C)n2ccnc2)c2ccccc2)cc1F (single isomer, unassigned) [Compound 768, (2S,4R)-4-fluoro-N-[(S)-[3-fluoro-4-(propan-2-yl)phenyl](phenyl)methyl]-1-[(2R) or (2S)-2-(1H-imidazol-1-yl)propanoyl]pyrrolidine-2-carboxamide]"
22,,> 100000,290,"CC(C)c1ccc([C@@H](NC(=O)[C@@H]2C[C@@H](F)CN2C(=O)C(C)c2cnn[nH]2)c2ccccc2)cc1F (single isomer, unassigned) [Compound 769, (2S,4R)-4-fluoro-N-[(S)-[3-fluoro-4-(propan-2-yl)phenyl](phenyl)methyl]-1-[(2R) or (2S)-2-(1H-1,2,3-triazol-5-yl)propanoyl]pyrrolidine-2-carboxamide]"
33,540,> 100000,,"CC(C)c1ccc([C@@H](NC(=O)[C@@H]2C[C@@H](F)CN2C(=O)C(C)n2ccnc2)c2ccccc2)cc1F (single isomer, unassigned) [Compound 771, (2S,4R)-4-fluoro-N-[(S)-[3-fluoro-4-(propan-2-yl)phenyl](phenyl)methyl]-1-[(2S) or (2R)-2-(1H-imidazol-1-yl)propanoyl]pyrrolidine-2-carboxamide]"
124,1200,> 100000,,"CC(C)c1ccc([C@@H](NC(=O)[C@@H]2C[C@@H](F)CN2C(=O)C(O)c2cnn[nH]2)c2ccccc2)cc1F (single isomer, unassigned) [Compound 773, (2S,4R)-4-fluoro-N -[(S)-[3-fluoro-4-(propan-2-yl)phenyl](phenyl)methyl]-1-[(2R) or (2S)-2-hydroxy-2-(1H-1,2,3-triazol-5-yl)acetyl]pyrrolidine-2-carboxamide]"
22,190,> 100000,,"CC(C)c1ccc([C@@H](NC(=O)[C@@H]2C[C@@H](F)CN2C(=O)C(O)c2cnn[nH]2)c2ccccc2)cc1F (single isomer, unassigned) [Compound 774, (2S,4R)-4-fluoro-N-[(S)-[3-fluoro-4-(propan-2-yl)phenyl](phenyl)methyl]-1-[(2S) or (2R)-2-hydroxy-2-(1H-1,2,3-triazol-5-yl)acetyl]pyrrolidine-2-carboxamide]"
7,190,> 100000,,"CC(C(=O)N1C[C@H](F)C[C@H]1C(=O)N[C@@H](c1ccccc1)c1ccc(C2CC2)c(F)c1)n1cnc2ccccc21 (single isomer, unassigned) [Compound 809, (2S,4R)-1-[(2S) or (2R)-2-(1H-1,3-benzodiazol-1-yl)propanoyl]-N-[(S)-(4-cyclopropyl-3-fluorophenyl)(phenyl)methyl]-4-fluoropyrrolidine-2-carboxamide]"
